Patent publication US12703729B2, “GIP agonist compounds and methods” (Zealand Pharma A/S, priority 2014, dated 2026)
Starred links: 1 amine or outer side, 2 acyl side, 3 side chain; linkers in the order of their positions; H or OH if unused. Non-standard residues stand in square brackets, D forms with d. Residues, ends and D or L forms follow the SMILES beside them. Groups on a side chain read outwards from the residue. *: point of attachment. C20 diacid = O=C(O)CCCCCCCCCCCCCCCCCCC(=O)*; γGlu = O=C(O)[C@H](CCC(=O)[*:2])N[*:1]; AEEA = NCCOCCOCC(=O)O; Aib = CC(C)(N)C(=O)O

What was measured:
in vivo = settings: male, C57BL/6J, mouse; for bioavailability: Bioavailability s.c.; for half-life: 200 nmol/kg
human GIP R = target: T1, human GIP R (Homo sapiens, UniProt P48546); test: cell-based
T1 sequence (P48546 22-466): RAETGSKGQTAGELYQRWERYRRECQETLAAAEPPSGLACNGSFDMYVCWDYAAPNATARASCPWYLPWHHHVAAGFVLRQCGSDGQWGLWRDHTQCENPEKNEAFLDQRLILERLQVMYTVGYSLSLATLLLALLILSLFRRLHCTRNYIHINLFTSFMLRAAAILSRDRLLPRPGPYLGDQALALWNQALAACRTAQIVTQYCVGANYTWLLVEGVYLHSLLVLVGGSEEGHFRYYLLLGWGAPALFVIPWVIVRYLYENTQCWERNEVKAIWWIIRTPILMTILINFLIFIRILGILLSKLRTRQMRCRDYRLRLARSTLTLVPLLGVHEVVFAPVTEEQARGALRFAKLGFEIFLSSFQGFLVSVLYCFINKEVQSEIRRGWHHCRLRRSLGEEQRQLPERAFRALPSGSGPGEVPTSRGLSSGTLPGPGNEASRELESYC

[1] = target: T2, human GIP receptor (GIP R) (Homo sapiens, UniProt P48546); test: Activity assay at human GIP receptor, cAMP induction (AlphaScreen), Example 3
T2 sequence (P48546 22-466): T1 sequence (P48546 22-466)

[2] = target: human GLP-1 receptor (GLP-1R) (Homo sapiens, UniProt P43220); test: Activity assay at human GLP-1 receptor, cAMP induction (AlphaScreen), Example 3
[3] = iv, Terminal elimination half-life T½ i.v.
[4] = sc, Terminal elimination half-life T½ s.c.

Chain of human GLP-1 receptor (GLP-1R) (P43220 24-463): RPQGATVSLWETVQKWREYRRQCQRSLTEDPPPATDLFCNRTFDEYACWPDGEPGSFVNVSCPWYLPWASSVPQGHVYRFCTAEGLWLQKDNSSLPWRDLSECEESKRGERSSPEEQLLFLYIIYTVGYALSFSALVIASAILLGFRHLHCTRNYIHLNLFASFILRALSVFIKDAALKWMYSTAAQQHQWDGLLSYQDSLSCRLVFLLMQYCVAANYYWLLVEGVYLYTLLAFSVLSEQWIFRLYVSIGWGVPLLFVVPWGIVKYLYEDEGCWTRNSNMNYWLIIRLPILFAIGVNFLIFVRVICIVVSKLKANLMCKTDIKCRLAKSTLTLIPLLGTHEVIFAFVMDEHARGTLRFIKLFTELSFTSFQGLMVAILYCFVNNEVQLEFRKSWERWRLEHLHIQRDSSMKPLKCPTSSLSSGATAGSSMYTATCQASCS

SMILES: CC[C@H](C)[C@H](NC(=O)[C@H](CO)NC(=O)[C@H](Cc1ccc(O)cc1)NC(=O)[C@H](CC(=O)O)NC(=O)[C@H](CO)NC(=O)[C@@H](NC(=O)[C@H](Cc1ccccc1)NC(=O)[C@@H](NC(=O)CNC(=O)[C@H](CCC(=O)O)NC(=O)C(C)(C)NC(=O)[C@@H](N)Cc1ccc(O)cc1)[C@@H](C)O)[C@@H](C)CC)C(=O)N[C@@H](CCC(=O)O)C(=O)N[C@@H](CC(C)C)C(=O)N[C@@H](CCC(=O)O)C(=O)N[C@@H](CCCCN)C(=O)N[C@@H](CCCCNC(=O)COCCOCCNC(=O)COCCOCCNC(=O)CC[C@H](NC(=O)CCCCCCCCCCCCCCCCCCC(=O)O)C(=O)O)C(=O)N[C@@H](C)C(=O)N[C@@H](CCC(N)=O)C(=O)N[C@@H](CCCNC(=N)N)C(=O)N[C@@H](C)C(=O)N[C@@H](Cc1ccccc1)C(=O)N[C@H](C(=O)N[C@@H](CCC(=O)O)C(=O)N[C@@H](Cc1c[nH]c2ccccc12)C(=O)N[C@@H](CC(C)C)C(=O)N[C@@H](CC(C)C)C(=O)N[C@@H](C)C(=O)N[C@@H](CCC(N)=O)C(=O)NCC(=O)N1CCC[C@H]1C(=O)N[C@@H](CO)C(=O)N[C@@H](CO)C(=O)NCC(=O)N[C@@H](C)C(=O)N1CCC[C@H]1C(=O)N1CCC[C@H]1C(=O)N1CCC[C@H]1C(=O)N[C@@H](CO)C(N)=O)C(C)C [Compound 12]
- bioavailability (in vivo): 77%
- half-life (in vivo; [3]): 14.7 h
- Tmax (in vivo; sc): 8 h
- half-life (in vivo; [4]): 16.8 h
- bioavailability (in vivo; sc, repeated test): 98%
- EC50 (human GIP R): 9 pM
- EC50 [1]: 9 pM
- EC50 [2]: > 3000 pM

SMILES: CC[C@H](C)[C@H](NC(=O)[C@H](CCCCN)NC(=O)[C@H](CCC(=O)O)NC(=O)[C@H](CC(C)C)NC(=O)[C@H](CCC(=O)O)NC(=O)[C@@H](NC(=O)[C@H](CO)NC(=O)[C@H](Cc1ccc(O)cc1)NC(=O)[C@H](CC(=O)O)NC(=O)[C@H](CO)NC(=O)[C@@H](NC(=O)[C@H](Cc1ccccc1)NC(=O)[C@@H](NC(=O)CNC(=O)[C@H](CCC(=O)O)NC(=O)C(C)(C)NC(=O)[C@@H](N)Cc1ccc(O)cc1)[C@@H](C)O)[C@@H](C)CC)[C@@H](C)CC)C(=O)N[C@@H](C)C(=O)N[C@@H](CCC(N)=O)C(=O)N[C@@H](CCCNC(=N)N)C(=O)N[C@@H](C)C(=O)N[C@@H](Cc1ccccc1)C(=O)N[C@H](C(=O)N[C@@H](CCC(=O)O)C(=O)N[C@@H](Cc1c[nH]c2ccccc12)C(=O)N[C@@H](CC(C)C)C(=O)N[C@@H](CC(C)C)C(=O)N[C@@H](C)C(=O)N[C@@H](CCC(N)=O)C(=O)NCC(=O)N1CCC[C@H]1C(=O)N[C@@H](CO)C(=O)N[C@@H](CO)C(=O)NCC(=O)N[C@@H](C)C(=O)N1CCC[C@H]1C(=O)N1CCC[C@H]1C(=O)N1CCC[C@H]1C(=O)N[C@@H](CO)C(=O)N[C@@H](CCCCNC(=O)COCCOCCNC(=O)COCCOCCNC(=O)CC[C@H](NC(=O)CCCCCCCCCCCCCCCCCCC(=O)O)C(=O)O)C(N)=O)C(C)C [Compound 13] (H-Y[Aib]EGTFISDYSIELEKIAQRAFVEWLLAQGPSSGAPPPSK([AEEA-AEEA-γGlu-C20 diacid])-NH2)
- bioavailability (in vivo): 75%
- half-life (in vivo; [3]): 14.4 h
- Tmax (in vivo; sc): 8 h
- half-life (in vivo; [4]): 13.7 h
- EC50 (human GIP R): 14 pM
- EC50 [1]: 8 pM
- EC50 [2]: > 10000 pM

SMILES: CC[C@H](C)[C@H](NC(=O)[C@H](CO)NC(=O)[C@H](Cc1ccc(O)cc1)NC(=O)[C@H](CC(=O)O)NC(=O)[C@H](CO)NC(=O)[C@@H](NC(=O)[C@H](Cc1ccccc1)NC(=O)[C@@H](NC(=O)CNC(=O)[C@H](CCC(=O)O)NC(=O)C(C)(C)NC(=O)[C@@H](N)Cc1ccc(O)cc1)[C@@H](C)O)[C@@H](C)CC)C(=O)N[C@@H](CCC(=O)O)C(=O)N[C@@H](CC(C)C)C(=O)N[C@@H](CC(=O)O)C(=O)N[C@@H](CCCCN)C(=O)N[C@@H](CCCCNC(=O)COCCOCCNC(=O)COCCOCCNC(=O)CC[C@H](NC(=O)CCCCCCCCCCCCCCCCCCC(=O)O)C(=O)O)C(=O)N[C@@H](C)C(=O)N[C@@H](C)C(=O)N[C@@H](CCC(N)=O)C(=O)N[C@@H](CC(=O)O)C(=O)N[C@@H](Cc1ccccc1)C(=O)N[C@H](C(=O)N[C@@H](CC(N)=O)C(=O)N[C@@H](Cc1c[nH]c2ccccc12)C(=O)N[C@@H](CC(C)C)C(=O)N[C@@H](CC(C)C)C(=O)N[C@@H](C)C(=O)NCC(=O)N1CCC[C@H]1C(=O)N[C@@H](CO)C(=O)N[C@@H](CO)C(=O)NCC(=O)N[C@@H](C)C(=O)N1CCC[C@H]1C(=O)N1CCC[C@H]1C(=O)N1CCC[C@H]1C(=O)N[C@@H](CO)C(N)=O)C(C)C [Compound 15] (H-Y[Aib]EGTFISDYSIELDKK([AEEA-AEEA-γGlu-C20 diacid])AAQDFVNWLLAGPSSGAPPPS-NH2)
- bioavailability (in vivo): 87%
- half-life (in vivo; [3]): 19.2 h
- Tmax (in vivo; sc): 8 h
- half-life (in vivo; [4]): 16.7 h
- EC50 (human GIP R): 12 pM
- EC50 [1]: 24 pM
- EC50 [2]: > 100000 pM

SMILES: CC[C@H](C)[C@H](NC(=O)[C@H](CO)NC(=O)[C@H](Cc1ccc(O)cc1)NC(=O)[C@H](CC(=O)O)NC(=O)[C@H](CO)NC(=O)[C@@H](NC(=O)[C@H](Cc1ccccc1)NC(=O)[C@@H](NC(=O)CNC(=O)[C@H](CCC(=O)O)NC(=O)C(C)(C)NC(=O)[C@@H](N)Cc1ccc(O)cc1)[C@@H](C)O)[C@@H](C)CC)C(=O)N[C@@H](CCC(=O)O)C(=O)N[C@@H](CC(C)C)C(=O)N[C@@H](CC(=O)O)C(=O)N[C@@H](CCCCN)C(=O)N[C@@H](CCCCNC(=O)COCCOCCNC(=O)COCCOCCNC(=O)CC[C@H](NC(=O)CCCCCCCCCCCCCCCCCCC(=O)O)C(=O)O)C(=O)N[C@@H](C)C(=O)N[C@@H](CCC(N)=O)C(=O)N[C@@H](CCCNC(=N)N)C(=O)N[C@@H](C)C(=O)N[C@@H](Cc1ccccc1)C(=O)N[C@H](C(=O)N[C@@H](CCC(=O)O)C(=O)N[C@@H](Cc1c[nH]c2ccccc12)C(=O)N[C@@H](CC(C)C)C(=O)N[C@@H](CC(C)C)C(=O)N[C@@H](C)C(=O)N[C@@H](CCC(N)=O)C(=O)NCC(=O)N1CCC[C@H]1C(=O)N[C@@H](CO)C(=O)N[C@@H](CO)C(=O)NCC(=O)N[C@@H](C)C(=O)N1CCC[C@H]1C(=O)N1CCC[C@H]1C(=O)N1CCC[C@H]1C(=O)N[C@@H](CO)C(N)=O)C(C)C [Compound 17] (H-Y[Aib]EGTFISDYSIELDKK([AEEA-AEEA-γGlu-C20 diacid])AQRAFVEWLLAQGPSSGAPPPS-NH2)
- bioavailability (in vivo): 56%
- half-life (in vivo; [3]): 16.3 h
- Tmax (in vivo; sc): 8 h
- half-life (in vivo; [4]): 19.9 h
- EC50 (human GIP R): 7 pM
- EC50 [1]: 16 pM
- EC50 [2]: > 3000 pM

SMILES: CC[C@H](C)[C@H](NC(=O)[C@H](Cc1ccccc1)NC(=O)[C@H](C)NC(=O)[C@H](CCCNC(=N)N)NC(=O)[C@H](CCC(N)=O)NC(=O)[C@H](C)NC(=O)[C@H](CCCCNC(=O)COCCOCCNC(=O)COCCOCCNC(=O)CC[C@H](NC(=O)CCCCCCCCCCCCCCCCCCC(=O)O)C(=O)O)NC(=O)[C@H](CCCCN)NC(=O)[C@H](CC(=O)O)NC(=O)[C@H](CC(C)C)NC(=O)[C@H](CCC(=O)O)NC(=O)[C@@H](NC(=O)[C@H](CO)NC(=O)[C@H](Cc1ccc(O)cc1)NC(=O)[C@H](CC(=O)O)NC(=O)[C@H](CO)NC(=O)[C@@H](NC(=O)[C@H](Cc1ccccc1)NC(=O)[C@@H](NC(=O)CNC(=O)[C@H](CCC(=O)O)NC(=O)C(C)(C)NC(=O)[C@@H](N)Cc1ccc(O)cc1)[C@@H](C)O)[C@@H](C)CC)[C@@H](C)CC)C(=O)N[C@@H](CCC(=O)O)C(=O)N[C@@H](Cc1c[nH]c2ccccc12)C(=O)N[C@@H](CC(C)C)C(=O)N[C@@H](CC(C)C)C(=O)N[C@@H](C)C(=O)N[C@@H](CCC(N)=O)C(=O)NCC(=O)N1CCC[C@H]1C(=O)N[C@@H](CO)C(=O)N[C@@H](CO)C(=O)NCC(=O)N[C@@H](C)C(=O)N1CCC[C@H]1C(=O)N1CCC[C@H]1C(=O)N1CCC[C@H]1C(=O)N[C@@H](CO)C(N)=O [Compound 18] (H-Y[Aib]EGTFISDYSIELDKK([AEEA-AEEA-γGlu-C20 diacid])AQRAFIEWLLAQGPSSGAPPPS-NH2)
- bioavailability (in vivo): 78%
- half-life (in vivo; [3]): 17.6 h
- Tmax (in vivo; sc): 4 h
- half-life (in vivo; [4]): 15.1 h
- EC50 (human GIP R): 6 pM
- EC50 [1]: 7 pM
- EC50 [2]: > 3000 pM
